Earlier results as cited in PMC9187593 (Bioorganic chemistry, 2022).

Tested on: ICR mice
Details: positive controls

Structure (SMILES)	Effect on IP acid-stimulated stretching
CC(C(=O)O)c1cccc(C(=O)c2ccccc2)c1 (centres unmarked) [ketoprofen]	dose-dependent and significant decrease in IP acid-stimulated stretching
COc1ccc2c3c1O[C@H]1C(=O)CC[C@@]4(O)[C@@H](C2)N(C)CC[C@]314 [oxycodone]	dose-dependent and significant decrease in IP acid-stimulated stretching
